Assay results published in patent US20250281474A1, “PHARMACEUTICAL COMPOSITION FOR TREATING COGNITIVE DECLINE OR FOR TREATING OVERWEIGHTNESS OR OBESITY” (University of the Ryukyus, priority 2021, published 2025).

Assays:
[1] = system: AMPAR (CP-AMPAR); assay: Ca2+ imaging of hippocampal brain slices, AMPA+CTZ application (CP-AMPA reaction), HFD-fed mice; type: cell-based; settings: slices of HFD-fed mice given PER 5 mg/kg/day orally, 100 μM AMPA + 100 μM CTZ, N=5
Description: First, the intracellular calcium concentration ([Ca^2+]i) was directly measured in an acute brain slice of the hippocampus having a perihippocampal region using a mouse obesity model associated with HFD feeding (composition of diet (7) shown in Table 1) for 12 weeks after weaning to track calcium signaling (FIG. 1A: supplementary data moving image 1) in the hippocampus. HFD-fed mice received […] containing 100 μM CTZ (cyclothiazide; […]) applied to EC (entorhinal cortex), CA1 (cornu ammonis 1), CA2, CA3, and DG (dentate gyrus). The F525 normalized before and after application was compared.

[2] = system: NMDAR; assay: Ca2+ imaging of hippocampal brain slices, NMDA+glycine application (NMDA reaction), HFD-fed mice; type: cell-based, mouse; settings: slices of HFD-fed mice given PER 5 mg/kg/day orally, 50 μM NMDA + 10 μM glycine, N=5
[3] = system: calcium-permeable AMPA receptor; assay: Ca2+ imaging of hippocampal slices of Alzheimer's disease model mice (NL, NLGF); type: cell-based, mouse; settings: Alzheimer's disease model (NL and NLGF) mice fed CD
[4] = system: AMPAR subunits GluA1-4 mRNA; assay: qRT-PCR of AMPAR/NMDAR subunits in hippocampal regions, Ca2+ permeability index; type: in vivo, mouse
Description: After preparing and collecting hippocampal slices, CA1, CA2, CA3, DG, and EC regions were separated from hippocampal slices using a dissection knife from […] background mice and ob/ob mice, respectively. The CA1, CA2, CA3, DG, and EC regions of mice were separated and immediately lysed in disposable homogenization tube BioMasher2 (trademark) (Nippi, Tokyo, Japan) using 0.5 mL of TRIzol RNA isolation reagent (Thermo Fisher Scientific, Wilmington, DE). Total RNA was individually extracted from each region according to the remaining protocol of the TRIzol RNA isolation reagent provided by the manufacturer (Thermo Fisher Scientific, Wilmington, DE). 1 μg of total RNA was reverse transcribed using PrimeScript RT Reagent Kit (Takara, Shiga, Japan). An aliquot of the obtained cDNA was diluted 1:10 and added to a master mix of TB Green Premix ExTaq (Takara, Shiga, Japan), and real-time PCR was performed using a 7500 Fast Real-Time PCR system (Applied Biosystems, Foster City, CA, USA) according to the manufacturer's instructions. The conditions for real-time PCR were as follows. 40 cycles of 95° C. for 30 seconds, then 95° C. for 5 seconds and 60° C. for 34 seconds. The fluorescence intensity was measured for each annealing step and the threshold cycle time was determined using 7500 software. In addition, relative expression levels of β-actin were normalized to respective controls (vehicle group). The relative expression level of the target gene in each sample was determined using a standard curve and further normalized to the expression level of R-actin of the same sample. The sequences of primers and probes for these genes are shown in Supplemental Table 2. The “ratio of GluA2 mRNA amount/(GluA1+GluA3+GluA4 mRNA amount” was used as a Ca^2+ permeability index.
GluA2 is edited at the Q/R site within the reentry M2 membrane loop region by adenosine deaminase (ADAR2), which acts on RNA type 2 involved in editing double-stranded RNA from adenosine (A) to inosine (I) (review, refer to 15, 16 and 17). Attempts were made to determine real-time quantitative reverse transcription polymerase chain reaction (qRT-PCR), subunit composition of AMPAR and NMDAR. Total RNA in hippocampal subregions (CA1, CA3, DG, EC) was separated, and quantitative analysis of mRNA of GluA1, GluA2, GluA3, and GluA4 for AMPAR, and GluN1, GluN2A, GluN2B, and GluN2C for NMDAR was performed by qRT-PCR. […] Based on the mRNA amount of each subunit, the ratio of GluA2 to other GluA subunits (FIG. 2B) was determined. The ratio was defined as a Ca^2+ permeability index.

[5] = system: HFD-fed mice; assay: Five-trial social memory assay, HFD-fed mice; type: in vivo, mouse; settings: HFD-fed mice with PER treatment
Description: Five-trial social tests were performed as previously described (19). In summary, subject mice with CD, HFD, and HFD with PER treatment were housed individually starting 7 days before the study to establish territory dominance. On the day of the test, a female mouse was presented in the cages of subject male mice, which is a subject (FIG. 2G), and 5 min trials were performed 4 times in succession at 10 min intervals. In the fifth trial, a novel female mouse was presented (FIG. 2G) and the duration of the social investigation was recorded.

[6] = system: neurospheres established from NL-G-F(−/−) mice; assay: Neurosphere culture from NL-G-F(-/-) mouse hippocampus: Aβ42/Aβ40 EIA and Aβ staining; type: cell-based
Excerpt: Biomarkers of Alzheimer's dementia include the Aβ42/Aβ40 ratio of cerebrospinal fluid (CSF) and plasma levels, phosphorylated tau (P-tau) in threonines 181 and 217, and neurofilament lite (NfL) (Curr Opin Neurol 2021 1 266-274). The Aβ42/Aβ40 ratio is considered to be able to predict Aβ accumulation in PET (Doecke J D et al., Neurology 2020). Hippocampus on 17 to 19 days of NL-G-F(−/−) mouse embryonic life was taken out and cultured by a Neurosphere method by Brewer G J et al. (Nat Protoc 2007 2, 1490-1498), and a supernatant was measured by an EIA method using this culture system. The change in the Aβ42/Aβ40 ratio by the perampanel (50 μM/methyl cellulose 4 μL) was analyzed. In 4 μL of a 0.5 w/v % aqueous solution of methyl cellulose 400, 5×10^4 spheres smaller than 50 μm in diameter were cultured in 50 ml Falcon Flask coated with poly-D-lysine/laminin, and Aβ42 and Aβ40 of the supernatant were measured by EIA method on the second day (FIG. 29A) and the fourth day (FIG. 29B) of culture. The solvent was administered 12 hours after seeding.

N#Cc1ccccc1-c1cc(-c2ccccn2)cn(-c2ccccc2)c1=O [PER, 3-(2-cyanophenyl)-5-(2-pyridyl)-1-phenyl-1,2-dihydropyridine-2-one]
CP-AMPA reaction CA1 (maximum value of NF525) ([1]; CA1): 1.00 ± 0.01 (N = 5) | CP-AMPA reaction CA2 (maximum value of NF525) ([1]; CA2): 1.00 ± 0.02 (N = 5) | CP-AMPA reaction CA3 (maximum value of NF525) ([1]; CA3): 1.00 ± 0.01 (N = 5) | CP-AMPA reaction DG (maximum value of NF525) ([1]; DG): 1.02 ± 0.01 (N = 5) | CP-AMPA reaction EC (maximum value of NF525) ([1]; EC): 1.05 ± 0.05 (N = 5) | NMDA reaction CA1 (maximum value of NF525) ([2]; CA1): 1.20 ± 0.08 (N = 5) | NMDA reaction CA2 (maximum value of NF525) ([2]; CA2): 1.20 ± 0.09 (N = 5) | NMDA reaction CA3 (maximum value of NF525) ([2]; CA3): 1.12 ± 0.04 (N = 5) | NMDA reaction DG (maximum value of NF525) ([2]; DG): 1.17 ± 0.04 (N = 5) | NMDA reaction EC (maximum value of NF525) ([2]; EC): 1.16 ± 0.06 (N = 5) | inhibition of NMDAR by the calcium-permeable AMPA receptor [3]: can be eliminated | Ca2+ permeability index CA1 ([4]; GluA2 mRNA/(GluA1+GluA3+GluA4 mRNA), HFD-fed mice with PER, CA1, N=5): 0.29 ± 0.11 (N = 5) | Ca2+ permeability index CA3 ([4]; GluA2 mRNA/(GluA1+GluA3+GluA4 mRNA), HFD-fed mice with PER, CA3, N=5): 0.26 ± 0.10 (N = 5) | Ca2+ permeability index DG ([4]; GluA2 mRNA/(GluA1+GluA3+GluA4 mRNA), HFD-fed mice with PER, DG, N=5): 0.22 ± 0.06 (N = 5) | Ca2+ permeability index EC ([4]; GluA2 mRNA/(GluA1+GluA3+GluA4 mRNA), HFD-fed mice with PER, EC, N=5): 0.30 ± 0.05(N = 5) | Ca2+ permeability index via CA1, CA3, DG, EC (reduced by HFD) ([4]; HFD-fed mice, PER administration, N=5): returned to CD-fed mouse levels | GluA2 mRNA expression in CA1 (qRT-PCR) ([4]; mice fed HFD with PER, p<0.05): significant increase | social memory (five-trial social interaction test) [5]: restored social memory disturbance | Aβ staining of the culture ([6]; fourth day of culture, formic acid treatment): decrease in Aβ | Aβ42/Aβ40 ratio of the culture supernatant (EIA) ([6]; perampanel 50 μM/methyl cellulose 4 μL, second and fourth day of culture): significantly increased
